Data on one compound can be found in patent US10907168B2, “Jasmonic acid pathway activator” (MEDICAGO INC., priority 2015, dated 2021).

This test deals with cathepsin L-like C1A Cys proteases. Description: Protease assay in leaf crude extracts, Z-Phe-Arg-MCA substrate. In kind it is in vivo, Nicotiana benthamiana. The following applies: three tested doses (0.5, 1, 2 mM), seven days post-treatment, ANOVA P>0.05. How it is done: Forty-two day-old N. benthamiana plants grown in greenhouse were used for the experiments. Each plant was sprayed evenly with 50 ml of 0.5 mM, 1 mM or 2 mM MeJA in water containing 0.1% (v/v) Triton X-100 (Sigma-Aldrich, Mississauga ON, Canada), or with 50 ml of 1 mM arachidonic acid (Girard et al., 2007) in the same solvent, and transferred for seven days in a Conviron growth chamber (Conviron, Winnipeg MB, Canada). Plants sprayed with 50 ml of 0.1% (v/v) Triton X-100 in water were used in parallel as negative controls to avoid confounding effects due to experimental conditions. […]
Whole leaf proteins were extracted from three 1-cm^2 leaf discs in 400 μl of ice-cold 50 mM Tris-HCl, pH 7.5, containing 150 mM NaCl, by disrupting the leaf samples with tungsten carbide beads (Qiagen, Mississauga ON, Canada) in a Mini-Beadbeater apparatus (BioSpec, Bartlesville Okla., USA). […] RuBisCO small subunit was detected using polyclonal IgG raised in rabbit against a synthetic small subunit peptide (Agrisera, Vännäs, Sweden) and alkaline phosphatase-conjugated goat anti-rabbit IgG as secondary antibodies (Sigma-Aldrich). RuBisCO large subunit was detected using polyclonal IgG raised in hen against a synthetic large subunit peptide (Agrisera) and alkaline phosphatase-conjugated goat anti-chicken IgG as secondary antibodies (Sigma-Aldrich). […]

Regarding `CC/C=C\C[C@H]1C(=O)CC[C@@H]1CC(=O)OC` [MeJA, methyl jasmonate], the “cathepsin L-like activity” value is reported as “no impact”.
